Work on `c1ccc2c(c1)sc1ccccc12` yielded a solubility (mole fraction) (in 2-(2-butoxyethoxy)ethanol, 282.75 K) of 0.063, a solubility (mole fraction) (in 2-(2-butoxyethoxy)ethanol, 285.85 K) of 0.0695 and a solubility (mole fraction) (in 2-(2-butoxyethoxy)ethanol, 291.65 K) of 0.0873. It also gave a solubility (mole fraction) (in 2-(2-butoxyethoxy)ethanol, 298.95 K) of 0.105, a solubility (mole fraction) (in 2-(2-butoxyethoxy)ethanol, 304.35 K) of 0.123 and a solubility (mole fraction) (in 2-(2-butoxyethoxy)ethanol, 309.85 K) of 0.144. It also gave a solubility (mole fraction) (in 2-(2-butoxyethoxy)ethanol, 316.05 K) of 0.167, a solubility (mole fraction) (in 2-(2-butoxyethoxy)ethanol, 320.95 K) of 0.192 and a solubility (mole fraction) (in 2-(2-butoxyethoxy)ethanol, 324.35 K) of 0.217. For the same compound, the solubility (mole fraction) (in 2-(2-butoxyethoxy)ethanol, 328.95 K) was 0.245, the solubility (mole fraction) (in 2-(2-butoxyethoxy)ethanol, 333.15 K) was 0.28 and the solubility (mole fraction) (in DMF, 289.45 K) was 0.113. It also gave a solubility (mole fraction) (in DMF, 294.25 K) of 0.131, a solubility (mole fraction) (in DMF, 298.65 K) of 0.147 and a solubility (mole fraction) (in DMF, 302.65 K) of 0.165. The solubility (mole fraction) (in DMF, 306.55 K) was 0.184, the solubility (mole fraction) (in DMF, 310.15 K) was 0.206 and the solubility (mole fraction) (in DMF, 314.35 K) was 0.231. It also gave a solubility (mole fraction) (in DMF, 318.35 K) of 0.257, a solubility (mole fraction) (in DMF, 322.35 K) of 0.285 and a solubility (mole fraction) (in DMF, 325.55 K) of 0.313. It also gave a solubility (mole fraction) (in DMF, 329.25 K) of 0.344, a solubility (mole fraction) (in DMSO, 292.95 K) of 0.0567 and a solubility (mole fraction) (in DMSO, 296.45 K) of 0.0668. The solubility (mole fraction) (in DMSO, 301.25 K) was 0.0791, the solubility (mole fraction) (in DMSO, 306.15 K) was 0.0925 and the solubility (mole fraction) (in DMSO, 310.15 K) was 0.108. The solubility (mole fraction) (in DMSO, 314.85 K) was 0.127, the solubility (mole fraction) (in DMSO, 318.05 K) was 0.15 and the solubility (mole fraction) (in DMSO, 322.95 K) was 0.177. The solubility (mole fraction) (in DMSO, 325.45 K) was 0.201, the solubility (mole fraction) (in DMSO, 330.15 K) was 0.234 and the solubility (mole fraction) (in DMSO, 333.25 K) was 0.264. For the same compound, the solubility (mole fraction) (in acetone, 300.15 K) was 0.0769, the solubility (mole fraction) (in acetone, 301.15 K) was 0.0792 and the solubility (mole fraction) (in acetone, 303.15 K) was 0.0884. The solubility (mole fraction) (in acetone, 308.15 K) was 0.107, the solubility (mole fraction) (in acetone, 311.25 K) was 0.12 and the solubility (mole fraction) (in acetone, 314.65 K) was 0.136. The solubility (mole fraction) (in acetone, 317.95 K) was 0.156, the solubility (mole fraction) (in acetone, 321.65 K) was 0.179 and the solubility (mole fraction) (in acetone, 326.25 K) was 0.217. For the same compound, the solubility (mole fraction) (in acetone, 330.95 K) was 0.261, the solubility (mole fraction) (in acetone, 336.25 K) was 0.319 and the solubility (mole fraction) (in acetone, 341.15 K) was 0.372. It also gave a solubility (mole fraction) (in acetonitrile, 289.35 K) of 0.0103, a solubility (mole fraction) (in acetonitrile, 290.45 K) of 0.0107 and a solubility (mole fraction) (in acetonitrile, 293.25 K) of 0.0121. It also gave a solubility (mole fraction) (in acetonitrile, 297.35 K) of 0.0143, a solubility (mole fraction) (in acetonitrile, 302.15 K) of 0.0175 and a solubility (mole fraction) (in acetonitrile, 304.55 K) of 0.0199. For the same compound, the solubility (mole fraction) (in acetonitrile, 309.25 K) was 0.0244, the solubility (mole fraction) (in decalin, 294.15 K) was 0.0408 and the solubility (mole fraction) (in decalin, 296.15 K) was 0.042. It also gave a solubility (mole fraction) (in decalin, 298.15 K) of 0.0445, a solubility (mole fraction) (in decalin, 302.15 K) of 0.049 and a solubility (mole fraction) (in decalin, 304.15 K) of 0.0516. For the same compound, the solubility (mole fraction) (in decalin, 308.15 K) was 0.0571, the solubility (mole fraction) (in decalin, 317.15 K) was 0.0706 and the solubility (mole fraction) (in decalin, 325.15 K) was 0.0891. The solubility (mole fraction) (in decalin, 331.15 K) was 0.101, the solubility (mole fraction) (in decalin, 337.15 K) was 0.107 and the solubility (mole fraction) (in diethylene glycol, 287.85 K) was 0.00027. It also gave a solubility (mole fraction) (in diethylene glycol, 299.95 K) of 0.00062, a solubility (mole fraction) (in diethylene glycol, 309.95 K) of 0.00093 and a solubility (mole fraction) (in diethylene glycol, 314.15 K) of 0.00119. For the same compound, the solubility (mole fraction) (in diethylene glycol, 317.65 K) was 0.00163, the solubility (mole fraction) (in diethylene glycol, 320.95 K) was 0.0023 and the solubility (mole fraction) (in diethylene glycol, 324.95 K) was 0.00328. For the same compound, the solubility (mole fraction) (in diethylene glycol, 326.85 K) was 0.00443, the solubility (mole fraction) (in diethylene glycol, 328.15 K) was 0.00619 and the solubility (mole fraction) (in diethylene glycol, 330.15 K) was 0.00951. For the same compound, the solubility (mole fraction) (in diethylene glycol, 332.35 K) was 0.0143, the solubility (mole fraction) (in diethylene glycol, 334.15 K) was 0.0203 and the solubility (mole fraction) (in ethanol, 294.55 K) was 0.0062. The solubility (mole fraction) (in ethanol, 300.25 K) was 0.0074, the solubility (mole fraction) (in ethanol, 303.85 K) was 0.0082 and the solubility (mole fraction) (in ethanol, 306.45 K) was 0.0092. For the same compound, the solubility (mole fraction) (in ethanol, 310.25 K) was 0.0106, the solubility (mole fraction) (in ethanol, 313.95 K) was 0.0121 and the solubility (mole fraction) (in ethanol, 318.95 K) was 0.0141. For the same compound, the solubility (mole fraction) (in ethanol, 322.55 K) was 0.0164, the solubility (mole fraction) (in ethanol, 327.35 K) was 0.0197 and the solubility (mole fraction) (in ethanol, 331.15 K) was 0.0239. For the same compound, the solubility (mole fraction) (in n-octane, 292.05 K) was 0.0232, the solubility (mole fraction) (in n-octane, 294.15 K) was 0.0244 and the solubility (mole fraction) (in n-octane, 297.15 K) was 0.0277. The solubility (mole fraction) (in n-octane, 300.05 K) was 0.0317, the solubility (mole fraction) (in n-octane, 304.15 K) was 0.0373 and the solubility (mole fraction) (in n-octane, 308.25 K) was 0.0438. It also gave a solubility (mole fraction) (in n-octane, 314.15 K) of 0.0521, a solubility (mole fraction) (in n-octane, 318.15 K) of 0.062 and a solubility (mole fraction) (in n-octane, 325.15 K) of 0.0767. The solubility (mole fraction) (in n-octane, 337.15 K) was 0.0995, the solubility (mole fraction) (in n-propanol, 288.05 K) was 0.0065 and the solubility (mole fraction) (in n-propanol, 295.95 K) was 0.0083. For the same compound, the solubility (mole fraction) (in n-propanol, 300.15 K) was 0.0099, the solubility (mole fraction) (in n-propanol, 303.85 K) was 0.0118 and the solubility (mole fraction) (in n-propanol, 307.85 K) was 0.0143. It also gave a solubility (mole fraction) (in n-propanol, 314.65 K) of 0.0183, a solubility (mole fraction) (in n-propanol, 320.65 K) of 0.0232 and a solubility (mole fraction) (in n-propanol, 324.05 K) of 0.0292. It also gave a solubility (mole fraction) (in n-propanol, 328.95 K) of 0.0363, a solubility (mole fraction) (in n-propanol, 332.25 K) of 0.043 and a solubility (mole fraction) (in n-propanol, 336.05 K) of 0.0486. For the same compound, the solubility (mole fraction) (in sulfolane, 297.65 K) was 0.0541, the solubility (mole fraction) (in sulfolane, 299.45 K) was 0.0563 and the solubility (mole fraction) (in sulfolane, 301.75 K) was 0.0609. The solubility (mole fraction) (in sulfolane, 303.45 K) was 0.0712, the solubility (mole fraction) (in sulfolane, 309.15 K) was 0.0923 and the solubility (mole fraction) (in sulfolane, 313.35 K) was 0.109. For the same compound, the solubility (mole fraction) (in sulfolane, 317.05 K) was 0.125, the solubility (mole fraction) (in sulfolane, 321.05 K) was 0.144 and the solubility (mole fraction) (in sulfolane, 324.85 K) was 0.163. It also gave a solubility (mole fraction) (in sulfolane, 327.75 K) of 0.185, a solubility (mole fraction) (in sulfolane, 331.75 K) of 0.214 and a solubility (mole fraction) (in sulfolane, 334.75 K) of 0.242. The solubility (mole fraction) (in sulfolane, 338.25 K) was 0.271 and the solubility (mole fraction) (in sulfolane, 340.45 K) was 0.294.
